{"source": "patent US20200009085A1", "about": "“Methods For Treating Ovarian Cancer” (RADIUS HEALTH, INC., priority 2016, published 2020)", "key": {"[1]": {"molecular_target": "T1, ERα (Homo sapiens, UniProt P03372)", "T1 sequence (P03372 1-595)": "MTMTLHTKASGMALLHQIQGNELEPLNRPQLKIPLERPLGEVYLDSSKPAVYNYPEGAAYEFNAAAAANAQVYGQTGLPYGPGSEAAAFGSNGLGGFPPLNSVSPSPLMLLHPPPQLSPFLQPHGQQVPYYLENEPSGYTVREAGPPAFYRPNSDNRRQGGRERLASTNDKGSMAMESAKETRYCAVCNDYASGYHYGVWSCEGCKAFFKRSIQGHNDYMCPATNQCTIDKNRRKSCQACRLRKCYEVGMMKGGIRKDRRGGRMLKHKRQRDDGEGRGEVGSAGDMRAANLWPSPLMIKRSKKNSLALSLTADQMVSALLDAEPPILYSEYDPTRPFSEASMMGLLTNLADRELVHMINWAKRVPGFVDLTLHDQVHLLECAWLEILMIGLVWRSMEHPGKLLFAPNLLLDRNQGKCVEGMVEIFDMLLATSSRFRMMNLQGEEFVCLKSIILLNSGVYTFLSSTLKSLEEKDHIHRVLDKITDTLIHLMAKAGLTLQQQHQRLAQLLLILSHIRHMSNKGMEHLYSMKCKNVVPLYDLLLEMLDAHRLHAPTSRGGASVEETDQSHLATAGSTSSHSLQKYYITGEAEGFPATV", "settings": "ERα versus estrogen receptor beta (ERβ); cited from earlier work"}, "[2]": {"test_system": "OV-10-0050 ovarian cancer tumor", "experiment": "In vivo xenograft PDX model (OV-10-0050 ovarian patient derived xenograft)", "method": "RAD1901 used in the examples below was (6R)-6-(2-(N-(4-(2-(ethylamino)ethyl)benzyl)-N-ethylamino)-4-methoxyphenyl)-5,6,7,8-tetrahydronaphthalen-2-ol dihydrochloride, manufactured by IRIX Pharmaceuticals, Inc. (Florence, S.C.). RAD1901 was stored as a dry powder, formulated for use as a homogenous suspension in 0.5% (w/v) methylcellulose in deionized water, and for animal models was administered p.o.\nAll mice were housed in pathogen-free housing in individually ventilated cages with sterilized and dust-free bedding cobs, access to sterilized food and water ad libitum, under a light dark cycle (12-14 hour circadian cycle of artificial light) and controlled room temperature and humidity.\nThe PDX shown in FIG. 1 was the OV-10-0050 ovarian cancer tumor, derived from an ovarian adenocarcinoma from a person. The tumor was grade 3 and positive for cytokeratin indicating an ovarian epithelial type. The tumor also stained positive for ER and an ER target gene (progesterone receptor). The OV-10-0050 PDX model was established from viable human tumor tissue that had been serially passaged in animals (female Balb/c nude mice) a limited number of times to maintain tumor heterogeneity. […]\nTumor sizes were measured twice per week in two dimensions using a caliper, and the volume was expressed in mm^3 using the formula: V=0.5 a×b^2 where a and b were the long and short diameters of the tumor, respectively. […]\nTGI was calculated for each group using the formula: TGI (%)=[1−(Ti−T0)/(Vi−V0)]×100; Ti is the average tumor volume of a treatment group on a given day, T0 is the average tumor volume of the treatment group on the day of grouping, Vi is the average tumor volume of the vehicle control group on a given day with Ti, and V0 is the average tumor volume of the vehicle group on the day of grouping. […]\nA one-way ANOVA was performed to compare tumor volume among RAD1901-treted groups compared to the vehicle-treated group on day 32 of treatment. All data were analyzed using Graphpad Prism. p<0.05 was considered to be statistically significant."}, "[3]": {"test_system": "breast cancer xenograft models", "settings": "regardless of ESR1 mutation status and prior endocrine therapy; cited from earlier work"}}, "note": "Entries after “also recorded” stand apart in the source; their conditions may differ. Counter-ions that a name gives are not always drawn.", "data": [{"smiles": "CCNCCc1ccc(CN(CC)c2cc(OC)ccc2[C@@H]2CCc3cc(O)ccc3C2)cc1", "note": "[RAD1901, (6R)-6-(2-(N-(4-(2-(ethylamino)ethyl)benzyl)-N-ethylamino)-4-methoxyphenyl)-5,6,7,8-tetrahydronaphthalen-2-ol dihydrochloride]", "values": [{"measurement": "binding preference ERα versus ERβ", "setting": "[1]", "value": "preferentially bind ERα"}, {"measurement": "tolerability (reason the group was taken down)", "setting": "[2]; 60 mg/kg p.o. q.d., Day 32, tumor-bearing Balb/c nude mice", "value": "weakness and heavy body weight loss"}, {"measurement": "tumor regression", "setting": "[2]; OV-10-0050 PDX, 30 mg/kg and 60 mg/kg p.o. daily, individual tumor sizes on Day 32, FIG. 2, dihydrochloride", "value": "drive tumor regression; also recorded: tumor regressions in some animals"}, {"measurement": "tumor growth inhibition (TGI)", "setting": "[2]; OV-10-0050 PDX, RAD1901 30 or 60 mg/kg p.o. q.d., day 32, approximately equal activity at both dose groups, FIG. 1", "value": "about 80%"}, {"measurement": "tumor growth inhibition and/or regression", "setting": "[3]", "value": "inhibit tumor growth and/or drive tumor regression"}]}]}
